Measurements from publication PMC8161373, “New Cardenolides from Biotransformation of Gitoxigenin by the Endophytic Fungus Alternaria eureka 1E1BL1: Characterization and Cytotoxic Activities” (Molecules, 2021).
In brackets after ≈: the same amount, converted by molar mass. Like-named read-outs stand apart in the source and are kept apart here.

Experiments:
[1] = system: MRC-5 human lung fibroblast cell line; assay: MTT cell viability assay, MRC-5 (healthy); assay type: cell-based; settings: MRC5, 48 h treatment, n = 3
Description: (§1) Cytotoxicity of the metabolites and substrate were evaluated in various cancer cell lines (pancreatic: PANC-1, MIA PaCa-2; prostate: DU 145 and lung: A549) and two healthy cell lines (lung: MRC-5 and kidney: HEK-293) by MTT cell viability assay (Table 3).
(§2) To see cytotoxic effects of the obtained metabolites, a standard MTT (3-(4,5-dimethylthiazol-2-yl)-2,5-diphenyltetrazolium bromide) cell viability assay was performed on human cancer cell lines PANC-1 (pancreatic, ATCC® CRL-1469™), MIA PaCa-2 (pancreatic, ATCC® CRL-1420™), DU 145 (prostate, ATCC® HTB-81™) and A549 (lung, ATCC® CCL-185™) and two healthy cell lines MRC-5 (lung, ATCC® CCL-171™) and HEK-293 (kidney, ATCC® CRL-1573™) according to manufacturer’s instructions (M2128, Sigma-Aldrich®). For this purpose, cells at 80–90% confluency were seeded to 96-well plates as 5-10x10^3 cells/well in Eagle Minimal Essential Medium (EMEM) or Dulbecco Modified Eagle Medium (DMEM); supplemented with 10% FBS and 1% L-glutamine depending on the cell type and incubated in a humidified incubator at 37 °C with 5% CO2 atmosphere for 24 h. After cell adhesion, gitoxigenin and the metabolites were applied to the cells in triplicate with concentrations ranging between 0.001 and 10 µM. After 48 h exposure to certain concentrations of the compounds, medium was replaced with fresh one containing 10% MTT and plates were incubated for 3 h in the dark for the conversion of tetrazolium salts to formazan crystals by mitochondrial metabolism of viable cells. After incubation, formazan crystals were dissolved in DMSO and absorbance of each well were measured at 570 nm via microplate reader (Synergy™ HTX- BioTek, Winooski, VT, USA). Doxorubicin (10 nM, 1 µM and 4 µM) was used as positive control, whereas oleandrin (1 nM, 10 nM and 100 nM) was the second positive control as a potent cardenolide.
(§3) All compounds were dissolved in DMSO (Sigma Aldrich, St. Louis, MO, USA) and the final DMSO concentration applied to cells was 0.02% (v/v), which is non-toxic to cells. The IC50 values of the compounds were calculated by the normalization of optical densities (OD) to negative control DMSO (0.02%, v/v).

[2] = system: A549 human lung cancer cell line; assay: MTT cell viability assay, A549; assay type: cell-based; settings: 48 h treatment, n = 3
Description: as §1, §2, §3

[3] = system: DU 145 human prostate cancer cell line; assay: MTT cell viability assay, DU 145; assay type: cell-based; settings: 48 h treatment, n = 3
Description: as §1, §2, §3

[4] = system: HEK-293 human embryonic kidney cell line; assay: MTT cell viability assay, HEK-293 (healthy); assay type: cell-based; settings: for IC50: Homo sapiens, HEK293, healthy cell line, 48 h treatment, MTT, n = 3
Description: as §1, §2, §3

[5] = system: Mia PaCa-2 pancreatic cancer cell line; assay: MTT cell viability assay, MIA PaCa-2; assay type: cell-based; settings: Homo sapiens, 48 h treatment, n = 3
Description: as §1, §2, §3

[6] = system: PANC-1 human pancreatic cancer cell line; assay: MTT cell viability assay, PANC-1; assay type: cell-based; settings: 48 h treatment, n = 3
Description: as §1, §2, §3

[7] = system: MCF-7 (breast adenocarcinoma); parameters: method as in PMID 14531018; settings: cited from earlier work
dengue virus = system: dengue virus; parameters: method as in PMID 22155902; settings: immunofluorescence screen, hit criteria ≥40% inhibition; cited from earlier work
[8] = system: human nasopharynx carcinoma; parameters: method as in PMID 5014314; settings: cited from earlier work
UACC-62 (melanoma) = system: UACC-62 (melanoma); parameters: method as in PMID 14531018; settings: cited from earlier work
HeLa cells [9] = system: HeLa cells; parameters: method as in PMID 5589524; settings: cited from earlier work
[10] = system: TK-10 (renal adenocarcinoma); parameters: method as in PMID 14531018; settings: cited from earlier work
HeLa cells [11] = system: HeLa cells; parameters: method as in PMID 12054363; settings: homogeneous plate-reader assay; read-out: EC50 anticancer effect against HeLa cells; cited from earlier work
[12] = system: A549, DU 145, PANC-1, MIA PaCa-2 cell lines; assay: MTT cell viability assay, four cancer cell lines together; assay type: cell-based; settings: Homo sapiens; range over four cancer cell lines; read-out: IC50 values ranging over A549, DU 145, PANC-1, MIA PaCa-2 cell lines
Description: as §1
To see cytotoxic effects of the obtained metabolites, a standard MTT (3-(4,5-dimethylthiazol-2-yl)-2,5-diphenyltetrazolium bromide) cell viability assay was performed on human cancer cell lines PANC-1 (pancreatic, ATCC® CRL-1469™), MIA PaCa-2 (pancreatic, ATCC® CRL-1420™), DU 145 (prostate, ATCC® HTB-81™) and A549 (lung, ATCC® CCL-185™) and two healthy cell lines MRC-5 (lung, ATCC® CCL-171™) and HEK-293 (kidney, ATCC® CRL-1573™) according to manufacturer’s instructions (M2128, Sigma-Aldrich®). […] After incubation, formazan crystals were dissolved in DMSO and absorbance of each well were measured at 570 nm via microplate reader (Synergy™ HTX- BioTek, Winooski, VT, USA). […]
as §3

[13] = system: infectious virus production (COVID-19); parameters: method as in doi:10.1101/2020.07.15.203489; settings: in vitro, cited from earlier work

| Structure (SMILES) | IC50 [1] [µM] | IC50 [2] [µM] | IC50 [3] [µM] | IC50 [4] [µM] | IC50 [5] [µM] | IC50 [6] [µM] | toxicity on healthy cell line HEK-293 ([4]; up to concentration of 10 µM) | IC50 [7] [µM] | inhibition of dengue virus (dengue virus) [%] | ED50 in vitro inhibitory activity against human nasopharynx carcinoma [8] [µg/mL] | IC50 (UACC-62 (melanoma)) [µM] | growth inhibitory effect on HeLa cells (HeLa cells [9]) [µg/mL] | IC50 [10] [µM] | EC50 (HeLa cells [11]) [µM] | IC50 [12] [µM] | reduction in infectious virus production ([13]; 0.05 µg/mL) [fold] | reduction in infectious virus production ([13]; 0.1 µg/mL) [fold] |
| --- | --- | --- | --- | --- | --- | --- | --- | --- | --- | --- | --- | --- | --- | --- | --- | --- | --- |
| C[C@]12CCC(=O)C[C@H]1CC(O)C1C2CC[C@]2(C)[C@@H](C3=CC(=O)OC3)[C@@H](O)C[C@]12O (stereo partly drawn) [Compound 1, 4-((5R,10S,13R,14S,16S,17R)-7,14,16-Trihydroxy-10,13-dimethyl-3-oxohexadecahydro-1H-cyclopenta[a]phenanthren-17-yl)furan-2(5H)-one] | > 10 | > 10 | > 10 | > 10 | > 10 | > 10 |  |  |  |  |  |  |  |  |  |  |  |
| C[C@]12CCC(=O)C[C@H]1CCC1C2CC[C@]2(C)[C@@H](C3=CC(=O)OC3)[C@@H](O)C[C@]12O (stereo partly drawn) [Compound 2, 4-((5R,10S,13R,14S,16S,17R)-14,16-Dihydroxy-10,13-dimethyl-3-oxohexadecahydro-1H-cyclopenta[a]phenanthren-17-yl)furan-2(5H)-one] | > 10 | > 10 | > 10 | > 10 | > 10 | > 10 |  |  |  |  |  |  |  |  |  |  |  |
| C[C@]12CCC(=O)C[C@H]1CC(O)C1C2CC(O)[C@]2(C)[C@@H](C3=CC(=O)OC3)[C@@H](O)C[C@]12O (stereo partly drawn) [Compound 3, 4-((5R,10S,13S,14S,16S,17R)-7,12,14,16-Tetrahydroxy-10,13-dimethyl-3-oxohexadecahydro-1H-cyclopenta[a]phenanthren-17-yl)furan-2(5H)-one] | > 10 | > 10 | > 10 | > 10 | > 10 | > 10 |  |  |  |  |  |  |  |  |  |  |  |
| COC1(OC)CC[C@]2(C)C3CC[C@]4(C)[C@@H](C5=CC(=O)OC5)[C@@H](O)C[C@]4(O)C3C(O)C[C@@H]2C1 (stereo partly drawn) [Compound 4, 4-((5R,10S,13R,14S,16S,17R)-7,14,16-Trihydroxy-3,3-dimethoxy-10,13-dimethylhexadecahydro-1H-cyclopenta[a]phenanthren-17-yl)furan-2(5H)-one] | > 10 | > 10 | > 10 | > 10 | > 10 | > 10 |  |  |  |  |  |  |  |  |  |  |  |
| C[C@]12CC[C@@H](O)C[C@H]1CCC1C2CC[C@]2(C)[C@@H](C3=CC(=O)OC3)[C@@H](O)C[C@]12O (stereo partly drawn) [Compound 5, 4-((3R,5R,10S,13R,14S,16S,17R)-3,14,16-Trihydroxy-10,13-dimethylhexadecahydro-1H-cyclopenta[a]phenanthren-17-yl)furan-2(5H)-one] | > 10 | > 10 | > 10 | > 10 | > 10 | > 10 |  |  |  |  |  |  |  |  |  |  |  |
| C[C@]12CC[C@@H](O)C[C@H]1CC(O)C1C2CC[C@]2(C)[C@@H](C3=CC(=O)OC3)[C@@H](O)C[C@]12O (stereo partly drawn) [Compound 6, 4-((3R,5S,10S,13R,14S,16S,17R)-3,7,14,16-Tetrahydroxy-10,13-dimethylhexadecahydro-1H-cyclopenta[a]phenanthren-17-yl)furan-2(5H)-one] | > 10 | > 10 | > 10 | > 10 | > 10 | > 10 |  |  |  |  |  |  |  |  |  |  |  |
| C[C@]12CCC(=O)C[C@H]1CCC1C2CC(O)[C@]2(C)[C@@H](C3=CC(=O)OC3)[C@@H](O)C[C@]12O (stereo partly drawn) [Compound 7, 4-((5R,10S,13S,14S,16S,17R)-12,14,16-Trihydroxy-10,13-dimethyl-3-oxohexadecahydro-1H-cyclopenta[a]phenanthren-17-yl)furan-2(5H)-one] | > 10 | > 10 | > 10 | > 10 | > 10 | 6.24 |  |  |  |  |  |  |  |  |  |  |  |
| C[C@]12CC[C@@H](O)C[C@H]1CCC1C2CC(O)[C@]2(C)[C@@H](C3=CC(=O)OC3)[C@@H](O)C[C@]12O (stereo partly drawn) [Compound 8, 4-((3R,5R,10S,13S,14S,16S,17R)-3,12,14,16-Tetrahydroxy-10,13-dimethylhexadecahydro-1H-cyclopenta[a]phenanthren-17-yl)furan-2(5H)-one] | 9.35 | 8.25 | > 10 | > 10 | 3.4 | 1.95 | without causing toxicity |  |  |  |  |  |  |  |  |  |  |
| COc1cccc2c1C(=O)c1c(O)c3c(c(O)c1C2=O)C[C@@](O)(C(=O)CO)C[C@@H]3O[C@H]1C[C@H](N)[C@H](O)[C@H](C)O1 [Doxorubicin, reference compound] | 0.865 | 0.62 | 0.19 | 0.587 | 0.59 | > 10 |  |  |  |  |  |  |  |  |  |  |  |
| C[C@]12CC[C@H](O)C[C@H]1CCC1C2CC[C@]2(C)[C@@H](C3=CC(=O)OC3)[C@@H](O)C[C@]12O (stereo partly drawn) [Gitoxigenin, 4-((3S,5R,10S,13R,14S,16S,17R)-3,14,16-Trihydroxy-10,13-dimethylhexadecahydro-1H-cyclopenta[a]phenanthren-17-yl) furan-2(5H)-one] | 0.815 | 2.19 | 4.08 | 7.6 | 3.1 | 1.53 |  | 1.8 ± 0.32 | 49.01 | 2.3 (≈ 5.89 µM) | 2.83 ± 0.17 | 2.25 | 0.415 ± 0.03 | 2.1 | 1.53 to 4.08 |  |  |
| CO[C@H]1C[C@H](O[C@H]2CC[C@@]3(C)[C@H](CC[C@@H]4[C@@H]3CC[C@]3(C)[C@@H](C5=CC(=O)OC5)[C@@H](OC(C)=O)C[C@]43O)C2)O[C@@H](C)[C@@H]1O [Oleandrin, reference compound] | 0.0173 | 0.0426 | 0.021 | 0.073 | 0.035 | 0.0387 |  |  |  |  |  |  |  |  |  | 78 | 100 |
